For orientation: EC50 means the concentration giving half of the maximal effect.

The text below walks through data of US12054486B2, “Pyridine derivatives and their use as sodium channel activators” (Xenon Pharmaceuticals Inc., priority 2021, dated 2024).

The target of series [1] is sodium channel isoforms of interest stably expressed in Human Embryonic Kidney Cells (voltage-gated sodium channel, particularly NaV1.1) (Homo sapiens, UniProt P35498). The series is described as follows: automated planar patch clamp assay of sodium channel gating (area under the sodium current trace). Format: cell-based. As to conditions: HEK cells, voltage step from −120 mV to 0 mV, increasing concentrations. The method, boiled down:
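Sodium channel isoforms stably expressed in HEK cells, recorded by automated planar patch clamp with depolarizing steps from −120 mV to 0 mV at increasing compound concentrations. Area under the current trace quantifies gating effect; peak current, inactivation time constant and steady-state inactivation also measured; potency from concentration responses.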
(In general: The patch-clamp technique gives a direct electrical read-out from membranes.)

The next series concerns the target NaV1.1 (Homo sapiens, UniProt P35498). As to conditions: NaV1.1-expressing HEK cells; cited from earlier work.
For the next series, the target named is NaV1.2 (Homo sapiens, UniProt Q99250). The settings on record: relative to NaV1.1 activation; cited from earlier work.
Another series deals with NaV1.5 (Homo sapiens, UniProt Q14524). As to conditions: relative to NaV1.1 activation; cited from earlier work.
NaV1.5, sequence (Q14524 whole entry): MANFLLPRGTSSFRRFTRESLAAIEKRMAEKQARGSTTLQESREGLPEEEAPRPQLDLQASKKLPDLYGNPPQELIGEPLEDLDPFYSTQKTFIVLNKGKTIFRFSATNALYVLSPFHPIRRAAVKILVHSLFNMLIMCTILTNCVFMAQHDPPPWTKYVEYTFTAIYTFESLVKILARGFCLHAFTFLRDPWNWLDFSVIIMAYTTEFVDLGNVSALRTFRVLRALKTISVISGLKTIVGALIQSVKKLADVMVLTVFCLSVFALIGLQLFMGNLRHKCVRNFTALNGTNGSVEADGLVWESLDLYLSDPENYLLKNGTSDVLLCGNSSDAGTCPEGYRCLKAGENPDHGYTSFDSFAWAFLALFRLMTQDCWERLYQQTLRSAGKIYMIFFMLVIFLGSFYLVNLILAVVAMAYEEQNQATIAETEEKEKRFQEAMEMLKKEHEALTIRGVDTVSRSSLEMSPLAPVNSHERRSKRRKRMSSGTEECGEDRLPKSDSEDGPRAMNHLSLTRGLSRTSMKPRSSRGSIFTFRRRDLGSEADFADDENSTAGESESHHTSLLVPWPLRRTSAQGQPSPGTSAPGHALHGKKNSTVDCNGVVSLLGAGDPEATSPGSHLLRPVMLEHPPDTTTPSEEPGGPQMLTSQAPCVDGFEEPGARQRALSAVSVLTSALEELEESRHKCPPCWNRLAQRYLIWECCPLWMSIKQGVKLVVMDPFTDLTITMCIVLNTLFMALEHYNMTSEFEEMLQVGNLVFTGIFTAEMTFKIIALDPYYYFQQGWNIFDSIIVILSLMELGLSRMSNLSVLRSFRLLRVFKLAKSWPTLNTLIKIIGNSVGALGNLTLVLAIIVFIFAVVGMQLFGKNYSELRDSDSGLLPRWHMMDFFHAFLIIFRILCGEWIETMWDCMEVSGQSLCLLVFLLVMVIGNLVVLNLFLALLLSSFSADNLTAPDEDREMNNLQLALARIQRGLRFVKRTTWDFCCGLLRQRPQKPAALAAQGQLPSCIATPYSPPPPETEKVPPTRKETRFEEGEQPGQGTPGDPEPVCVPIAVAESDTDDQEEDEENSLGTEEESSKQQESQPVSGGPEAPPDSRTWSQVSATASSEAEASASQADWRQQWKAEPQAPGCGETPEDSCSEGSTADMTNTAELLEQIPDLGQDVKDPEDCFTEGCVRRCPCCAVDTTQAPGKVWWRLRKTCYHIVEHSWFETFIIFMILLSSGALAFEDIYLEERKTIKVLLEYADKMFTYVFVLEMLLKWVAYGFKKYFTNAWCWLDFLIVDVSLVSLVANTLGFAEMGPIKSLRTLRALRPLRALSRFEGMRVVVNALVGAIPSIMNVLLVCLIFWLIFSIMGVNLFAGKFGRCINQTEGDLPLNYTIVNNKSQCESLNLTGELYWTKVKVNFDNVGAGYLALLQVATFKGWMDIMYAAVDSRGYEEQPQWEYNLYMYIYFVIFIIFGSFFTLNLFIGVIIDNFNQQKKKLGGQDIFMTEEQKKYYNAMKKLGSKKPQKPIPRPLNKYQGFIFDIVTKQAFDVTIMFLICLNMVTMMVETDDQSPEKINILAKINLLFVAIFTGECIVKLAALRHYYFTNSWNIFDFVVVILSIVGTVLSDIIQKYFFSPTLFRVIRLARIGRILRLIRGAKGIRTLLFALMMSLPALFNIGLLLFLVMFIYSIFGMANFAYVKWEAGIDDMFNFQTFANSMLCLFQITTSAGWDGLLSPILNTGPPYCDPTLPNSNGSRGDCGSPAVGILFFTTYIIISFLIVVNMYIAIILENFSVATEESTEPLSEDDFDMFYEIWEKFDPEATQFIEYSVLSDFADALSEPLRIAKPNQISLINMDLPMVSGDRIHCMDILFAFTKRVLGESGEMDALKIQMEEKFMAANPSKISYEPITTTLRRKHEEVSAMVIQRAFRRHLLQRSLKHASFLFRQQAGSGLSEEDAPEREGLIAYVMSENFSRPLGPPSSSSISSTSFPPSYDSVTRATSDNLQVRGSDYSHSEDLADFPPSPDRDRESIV

NaV1.2, sequence (Q99250 whole entry): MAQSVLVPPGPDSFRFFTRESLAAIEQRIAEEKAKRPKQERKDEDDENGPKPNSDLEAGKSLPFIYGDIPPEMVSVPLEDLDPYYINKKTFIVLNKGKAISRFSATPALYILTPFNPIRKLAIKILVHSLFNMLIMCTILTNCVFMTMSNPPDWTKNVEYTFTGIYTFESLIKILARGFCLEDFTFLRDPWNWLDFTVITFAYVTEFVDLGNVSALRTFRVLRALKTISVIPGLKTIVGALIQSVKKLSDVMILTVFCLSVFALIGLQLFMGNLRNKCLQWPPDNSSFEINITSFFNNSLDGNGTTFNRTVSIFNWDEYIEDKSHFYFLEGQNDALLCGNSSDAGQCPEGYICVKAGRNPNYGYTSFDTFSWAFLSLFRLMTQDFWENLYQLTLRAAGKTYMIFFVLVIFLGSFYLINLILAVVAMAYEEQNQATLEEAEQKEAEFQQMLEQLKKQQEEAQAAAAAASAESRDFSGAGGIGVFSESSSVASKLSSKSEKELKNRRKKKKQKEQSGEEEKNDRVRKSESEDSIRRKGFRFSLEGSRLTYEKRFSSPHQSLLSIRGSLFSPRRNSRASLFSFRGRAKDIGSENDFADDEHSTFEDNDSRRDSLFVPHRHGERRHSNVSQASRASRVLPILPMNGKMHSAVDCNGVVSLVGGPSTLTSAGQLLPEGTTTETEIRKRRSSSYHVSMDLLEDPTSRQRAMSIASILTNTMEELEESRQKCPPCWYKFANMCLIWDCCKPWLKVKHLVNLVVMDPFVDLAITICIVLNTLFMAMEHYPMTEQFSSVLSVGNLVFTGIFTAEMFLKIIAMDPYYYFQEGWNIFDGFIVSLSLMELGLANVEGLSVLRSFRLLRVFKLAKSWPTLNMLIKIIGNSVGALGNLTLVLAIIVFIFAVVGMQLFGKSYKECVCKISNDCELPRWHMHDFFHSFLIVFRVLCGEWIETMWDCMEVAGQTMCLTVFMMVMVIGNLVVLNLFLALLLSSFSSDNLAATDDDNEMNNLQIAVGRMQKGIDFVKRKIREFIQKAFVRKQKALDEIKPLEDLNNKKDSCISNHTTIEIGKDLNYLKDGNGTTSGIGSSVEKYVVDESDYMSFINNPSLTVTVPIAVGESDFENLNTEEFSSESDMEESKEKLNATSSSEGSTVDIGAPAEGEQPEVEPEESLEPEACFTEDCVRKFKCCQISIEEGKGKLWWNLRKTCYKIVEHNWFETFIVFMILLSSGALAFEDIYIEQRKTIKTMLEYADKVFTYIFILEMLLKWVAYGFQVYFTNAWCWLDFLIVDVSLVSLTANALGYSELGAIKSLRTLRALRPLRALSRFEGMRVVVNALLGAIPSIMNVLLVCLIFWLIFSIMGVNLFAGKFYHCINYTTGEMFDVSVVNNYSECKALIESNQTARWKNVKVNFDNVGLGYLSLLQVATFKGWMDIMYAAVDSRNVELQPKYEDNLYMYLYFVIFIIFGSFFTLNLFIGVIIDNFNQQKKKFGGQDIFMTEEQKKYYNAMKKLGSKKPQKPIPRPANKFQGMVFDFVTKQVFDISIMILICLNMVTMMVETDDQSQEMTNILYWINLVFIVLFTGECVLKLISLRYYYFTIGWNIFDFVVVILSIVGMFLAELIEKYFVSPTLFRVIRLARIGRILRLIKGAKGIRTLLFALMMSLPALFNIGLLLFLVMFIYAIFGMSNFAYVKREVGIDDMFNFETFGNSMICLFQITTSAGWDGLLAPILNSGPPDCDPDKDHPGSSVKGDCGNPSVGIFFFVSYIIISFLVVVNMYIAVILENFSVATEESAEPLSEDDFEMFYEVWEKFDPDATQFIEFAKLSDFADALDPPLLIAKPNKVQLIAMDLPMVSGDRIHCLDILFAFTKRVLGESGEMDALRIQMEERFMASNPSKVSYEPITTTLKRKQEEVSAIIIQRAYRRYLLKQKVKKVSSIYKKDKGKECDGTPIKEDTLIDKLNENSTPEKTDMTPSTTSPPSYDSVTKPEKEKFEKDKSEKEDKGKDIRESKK

Turning to `FC1(F)CCN(c2nccc(-c3ccc4[nH]ncc4c3)c2-c2nc3c([nH]2)CCOC3)C1` [Example 74, 2-[2-(3,3-difluoropyrrolidin-1-yl)-4-(1H-indazol-5-yl)-3-pyridyl]-1,4,6,7-tetrahydropyrano[3,4-d]imidazole], in series [1], the EC50 was in the range of 1000 to 10000 nM and the “Empirical Emax” value is on record as “++++ (++++ indicates a value greater than 7.5)”.

Turning to `Fc1cccc(-c2ccnc(N3CCC(F)(F)C3)c2-c2nc3c([nH]2)CCOC3)c1` [Example 75, 2-[2-(3,3-difluoropyrrolidin-1-yl)-4-(3-fluorophenyl)-3-pyridyl]-1,4,6,7-tetrahydropyrano[3,4-d]imidazole], in series [1], the EC50 was < 1000 nM and the “Empirical Emax” value is given as “++++ (++++ indicates a value greater than 7.5)”.

With `FC1(F)CCN(c2nccc(-c3ccccn3)c2-c2nc3c([nH]2)CCOC3)C1` [Example 76, 2-[2-(3,3-difluoropyrrolidin-1-yl)-4-(2-pyridyl)-3-pyridyl]-1,4,6,7-tetrahydropyrano[3,4-d]imidazole], in series [1], the EC50 fell in the range of 10000 to 50000 nM and the “Empirical Emax” value is “+++ (+++ indicates a value from 5.0 up to 7.5 μM)”.

For `Fc1cccc(-c2ccnc(N3CCC(F)(F)C3)c2-c2nc3c([nH]2)CCOC3)c1F` [Example 77, 2-[4-(2,3-difluorophenyl)-2-(3,3-difluoropyrrolidin-1-yl)-3-pyridyl]-1,4,6,7-tetrahydropyrano[3,4-d]imidazole], in series [1], the EC50 was < 1000 nM and the “Empirical Emax” value is on record as “++++ (++++ indicates a value greater than 7.5)”.

Regarding `Fc1ccccc1-c1ccnc(N2CCC(F)(F)C2)c1-c1nc2ccncc2[nH]1` [Example 78, 2-[2-(3,3-difluoropyrrolidin-1-yl)-4-(2-fluorophenyl)-3-pyridyl]-1H-imidazo[4,5-c]pyridine], in series [1], the EC50 was < 1000 nM and the “Empirical Emax” value is “++++ (++++ indicates a value greater than 7.5)”.

`Cc1cc2nc(-c3c(-c4ccccc4F)ccnc3N3CCC(F)(F)C3)[nH]c2cn1` [Example 79, 2-[2-(3,3-difluoropyrrolidin-1-yl)-4-(2-fluorophenyl)-3-pyridyl]-6-methyl-3H-imidazo[4,5-c]pyridine]: in series [1], the EC50 was < 1000 nM and the “Empirical Emax” value was “++++ (++++ indicates a value greater than 7.5)”.

`Cn1cc2nc(-c3c(-c4ccccc4F)ccnc3N3CCC(F)(F)C3)[nH]c2n1` [Example 80, 5-[2-(3,3-difluoropyrrolidin-1-yl)-4-(2-fluorophenyl)-3-pyridyl]-2-methyl-4H-imidazo[4,5-c]pyrazole]: in series [1], the EC50 lay in the range of 1000 to 10000 nM and the “Empirical Emax” value is “+++ (+++ indicates a value from 5.0 up to 7.5 μM)”.

As to `CCCCNS(=O)(=O)c1ccc(OC)c(-c2nnc3c4ccccc4c(C)nn23)c1` [Lu AE98134], on NaV1.1, the “concentration from which the total area under the curve for the duration of the depolarizing pulse is increased” value is ≥ 1 µM. The “selectivity against NaV1.2” value on NaV1.2 is reported as “moderate selectivity”. Further, at NaV1.5, the “selectivity against NaV1.5” value is given as “low selectivity”.
